# Experimental data reported in article PMC4457633 (Bioorganic & medicinal chemistry letters, 2015).
# Where two headings read alike, the source gives them in different places.
# Tests used:
# [1] = target: T1, VMAT-2 (Rattus norvegicus, UniProt Q01827); experiment: [3H]DA uptake at VMAT-2, isolated rat synaptic vesicle preparations; format: biochemical; conditions: for fold more potent inhibiting [3H]DA uptake at VMAT-2 compared to 16: compared to N-2,3-dihydroxypropyl derivative 16
# [2] = qualitative; ref [15]; cited from earlier work
# [3] = target: T1, VMAT-2; conditions: read-out: [3H]DTBZ Binding Ki; mean ± SEM; rat brain synaptic vesicles; ref [15]; cited from earlier work
# [4] = target: T1, VMAT-2; conditions: read-out: [3H]DA uptake Ki; mean ± SEM; rat synaptic vesicles; ref [15]; cited from earlier work
# T1 sequence (Q01827 whole entry): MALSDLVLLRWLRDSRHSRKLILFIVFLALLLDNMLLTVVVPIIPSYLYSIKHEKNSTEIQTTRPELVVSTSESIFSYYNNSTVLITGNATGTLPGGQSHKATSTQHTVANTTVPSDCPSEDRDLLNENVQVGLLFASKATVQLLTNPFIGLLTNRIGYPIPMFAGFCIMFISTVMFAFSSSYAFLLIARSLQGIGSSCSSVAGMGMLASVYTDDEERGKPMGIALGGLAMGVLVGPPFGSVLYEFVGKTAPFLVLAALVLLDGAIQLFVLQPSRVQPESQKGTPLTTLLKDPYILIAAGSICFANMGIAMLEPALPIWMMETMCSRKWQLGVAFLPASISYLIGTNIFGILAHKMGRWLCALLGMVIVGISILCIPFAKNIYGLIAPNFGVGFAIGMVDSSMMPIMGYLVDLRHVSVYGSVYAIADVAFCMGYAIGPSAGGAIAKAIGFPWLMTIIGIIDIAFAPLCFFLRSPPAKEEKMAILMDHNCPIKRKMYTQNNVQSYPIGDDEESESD
fold more potent inhibiting [3H]DA uptake at VMAT-2 compared to 16 [1],Compound,water solubility [2],further results
about 6 fold,c1ccc2nc(CC[C@H]3CCC[C@@H](CCc4ccc5ccccc5n4)N3)ccc2c1 [Compound 13],,
,CN1[C@@H](CCc2ccccc2)CCC[C@H]1CCc1ccccc1 [Lobelane],less than optimal water-solubility,
,OC[C@H](O)CN1[C@@H](CCc2ccc3ccccc3n2)CCC[C@H]1CCc1ccc2ccccc2n1 [Compound 16],,fold lower inhibitory potency than GZ-793A in vesicular [3H]DA uptake assay ([1]; compared to GZ-793A (Ki = […] nM)): 8 fold
,c1ccc(CC[C@H]2CCC[C@@H](CCc3ccccc3)N2)cc1 [Norlobelane],less than optimal water-solubility,Ki [3]: 2310 ± 190 nM; Ki [4]: 43 ± 2 nM
about 6 fold,c1ccc2c(CC[C@H]3CCC[C@@H](CCc4ccnc5ccccc45)N3)ccnc2c1 [Compound 14],,
,CN1[C@@H](CCc2ccnc3ccccc23)CCC[C@H]1CCc1ccnc2ccccc12 [Quinlobelane],improved water solubility over lobelane and norlobelane,

Compound,fold more potent inhibiting [3H]DA uptake at VMAT-2 compared to 16 [1],water solubility [2],further results
c1cnc2ccc(CC[C@H]3CCC[C@@H](CCc4ccc5ncccc5c4)N3)cc2c1 [Compound 15],about 6 fold,,
